The text below walks through data of patent US20090022714A1, “Combination methods of inhibiting tumor growth with a vascular endothelial growth factor receptor antagonist” (ImClone Systems, Inc., priority 2001, published 2009).

For the test, the target named is T1, KDR (VEGFR-2) (Homo sapiens, UniProt P35968).
T1 construct: the cDNA for KDR (VEGFR-2) extracellular domain is fused in-frame with the cDNA for human placental AP; made in house; host or cells: stably transfected NIH 3T3 cells, purified from supernatant on anti-AP antibody
T1 sequence (P35968 20-764 limits assumed): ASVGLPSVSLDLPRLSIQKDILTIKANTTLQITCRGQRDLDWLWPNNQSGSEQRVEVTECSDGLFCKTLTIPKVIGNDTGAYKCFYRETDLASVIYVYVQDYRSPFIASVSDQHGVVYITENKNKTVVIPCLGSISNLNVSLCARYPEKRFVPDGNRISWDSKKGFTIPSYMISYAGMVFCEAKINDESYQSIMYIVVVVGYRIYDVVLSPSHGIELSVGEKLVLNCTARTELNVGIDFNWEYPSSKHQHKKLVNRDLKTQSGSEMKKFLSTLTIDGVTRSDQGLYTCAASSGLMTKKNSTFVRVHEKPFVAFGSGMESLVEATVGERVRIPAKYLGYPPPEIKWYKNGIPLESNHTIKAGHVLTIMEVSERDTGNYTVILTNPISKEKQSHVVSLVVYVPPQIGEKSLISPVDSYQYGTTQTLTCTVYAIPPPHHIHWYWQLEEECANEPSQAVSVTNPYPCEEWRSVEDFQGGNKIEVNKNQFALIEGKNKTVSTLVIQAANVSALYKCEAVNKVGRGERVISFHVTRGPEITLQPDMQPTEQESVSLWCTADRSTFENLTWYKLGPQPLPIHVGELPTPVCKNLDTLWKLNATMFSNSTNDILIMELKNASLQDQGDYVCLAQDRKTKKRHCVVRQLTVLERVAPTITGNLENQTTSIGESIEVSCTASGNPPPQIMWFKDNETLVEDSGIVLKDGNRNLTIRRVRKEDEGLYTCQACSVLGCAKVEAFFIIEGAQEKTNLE
As to the kind of experiment: BIAcore analysis of p1C11 scFv, c-p1C11 and VEGF. The class given is binding. On the procedure: The binding kinetics of antibodies to KDR (VEGFR-2) were measured using BIAcore biosensor (Pharmacia Biosensor). […] Sensorgrams were obtained at each concentration and were evaluated using a program, BIA Evaluation 2.0, to determine the rate constants kon and koff. Kd was calculated as the ratio of rate constants koff/kon.
For orientation: Surface plasmon resonance follows binding to a sensor surface in real time, without labels.

As for VEGF [reference compound], the koff was 1.81 10^−4 s^−1 and the kon is 1.87 10^5 M^−1s^−1.
